Among the data in patent US9873690B2, “3-indol substituted derivatives, pharmaceutical compositions and methods for use” (Pfizer Inc., priority 2015, dated 2018) are IC50 values, retold here.

T1 sequence (P48775 whole entry): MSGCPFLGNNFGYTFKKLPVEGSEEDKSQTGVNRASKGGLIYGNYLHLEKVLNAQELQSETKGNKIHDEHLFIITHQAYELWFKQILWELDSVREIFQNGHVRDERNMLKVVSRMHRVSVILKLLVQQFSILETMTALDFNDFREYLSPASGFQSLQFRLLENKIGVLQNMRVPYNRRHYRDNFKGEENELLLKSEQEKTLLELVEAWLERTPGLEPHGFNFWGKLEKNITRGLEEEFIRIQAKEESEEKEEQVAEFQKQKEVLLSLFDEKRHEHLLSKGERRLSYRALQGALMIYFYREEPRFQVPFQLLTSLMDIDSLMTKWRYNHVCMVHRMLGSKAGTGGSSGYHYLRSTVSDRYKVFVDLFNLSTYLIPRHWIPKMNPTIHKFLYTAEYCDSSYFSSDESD

The assay has as its target T1, hTDO2 (Homo sapiens, UniProt P48775).
T1 construct: endogenous in cells; host or cells: A172 human brain glioblastoma cells (ATCC CRL-1620)
Put plainly: Cellular assay for TDO2 activity determination in A172 cells. The assay is classed as cell-based. The following applies: human glioblastoma A172 cells naturally expressing hTDO2; overnight incubation; kynurenine by absorbance at 480 nm. The gist of the method: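 A172 glioblastoma cells endogenously expressing hTDO2, 1.25×10^4 cells/well, incubated overnight at 37 °C, 5% CO2 in IMDM with 2% FBS and ten compound concentrations. Supernatant kynurenine measured after TCA treatment and Ehrlich's reagent (4-dimethylaminobenzaldehyde) by absorbance at 480 nm against a kynurenine standard curve, then curve-fitted.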
Consider `CNC(=O)C(O)CN1C(C)c2cc(-c3c[nH]c4cc(F)ccc34)ccc2S1(=O)=O` (single isomer, unassigned; (-)) [Example 100, (−)-3-(5-(6-fluoro-1H-indol-3-yl)-3-methyl-1,1-dioxidobenzo[d]isothiazol-2(3H)-yl)-2-hydroxy-N-methylpropanamide], for which the IC50 (commonly the midpoint of a concentration-inhibition curve) was 33 nM. This counts as double-digit nanomolar. The same measure for `CNC(=O)C(N)CN1C(C)c2cc(-c3c[nH]c4cc(F)ccc34)ccc2S1(=O)=O` (single isomer, unassigned; (-)) [Example 103, (−)-2-amino-3-(5-(6-fluoro-1H-indol-3-yl)-3-methyl-1,1-dioxidobenzo[d]isothiazol-2(3H)-yl)-N-methylpropanamide]: 413 nM; for `CNC(=O)C(CN1C(C)c2cc(-c3c[nH]c4cc(F)ccc34)ccc2S1(=O)=O)OC` (single isomer, unassigned; (-)) [Example 106, (−)-3-(5-(6-fluoro-1H-indol-3-yl)-3-methyl-1,1-dioxidobenzo[d]isothiazol-2(3H)-yl)-2-methoxy-N-methylpropanamide]: 507 nM. The same measure for `CNC(=O)C(CN1C(C)c2cc(-c3c[nH]c4cc(F)ccc34)ccc2S1(=O)=O)OC` (single isomer, unassigned; (-)) [Example 108, (−)-3-(5-(6-fluoro-1H-indol-3-yl)-3-methyl-1,1-dioxidobenzo[d]isothiazol-2(3H)-yl)-2-methoxy-N-methylpropanamide]: 93 nM; for `CCOC(=O)NCCN1C(C)c2cc(-c3c[nH]c4cc(F)ccc34)ccc2S1(=O)=O` (single isomer, unassigned; (-)) [Example 109, (−)-ethyl (2-(5-(6-fluoro-1H-indol-3-yl)-3-methyl-1,1-dioxidobenzo[d]isothiazol-2(3H)-yl)ethyl)carbamate]: 345 nM. The same measure for `CNC(=O)CN1C(C)c2cc(-c3c[nH]c4cc(F)ccc34)ccc2S1(=O)=O` (single isomer, unassigned; (-)) [Example 111, (−)-2-(5-(6-fluoro-1H-indol-3-yl)-3-methyl-1,1-dioxidobenzo[d]isothiazol-2(3H)-yl)-N-methylacetamide]: 45 nM; for `CC1c2cc(-c3c[nH]c4cc(F)ccc34)ccc2S(=O)(=O)N1CC(=O)N(C)C` (single isomer, unassigned; (-)) [Example 113, (−)-2-(5-(6-fluoro-1H-indol-3-yl)-3-methyl-1,1-dioxidobenzo[d]isothiazol-2(3H)-yl)-N,N-dimethylacetamide]: 59 nM; for `CC1c2cc(-c3c[nH]c4cc(F)ccc34)ccc2S(=O)(=O)N1CC(N)=O` (single isomer, unassigned; (-)) [Example 116]: 26 nM. `CC1c2cc(-c3c[nH]c4cc(F)ccc34)ccc2S(=O)(=O)N1CCN1CCOCC1` (single isomer, unassigned; (-)) [Example 117, (−)-5-(6-fluoro-1H-indol-3-yl)-3-methyl-2-(2-morpholinoethyl)-2,3-dihydrobenzo[d]isothiazole 1,1-dioxide] yielded an IC50 of 308 nM. Against the preceding compound, the IC50 is about 12-fold higher. The same measure for `CC1c2cc(-c3c[nH]c4cc(F)ccc34)ccc2S(=O)(=O)N1C1CCNC(=O)C1` (single isomer, unassigned; (-)) [Example 119, (−)-4-(-5-(6-fluoro-1H-indol-3-yl)-3-methyl-1,1-dioxidobenzo[d]isothiazol-2(3H)-yl)piperidin-2-one]: 390 nM. In the case of `CC1c2cc(-c3c[nH]c4cc(F)ccc34)ccc2S(=O)(=O)N1C1CCNC(=O)C1` (single isomer, unassigned; (-)) [Example 122, (−)-4-(-5-(6-fluoro-1H-indol-3-yl)-3-methyl-1,1-dioxidobenzo[d]isothiazol-2(3H)-yl)piperidin-2-one], the IC50 is 54 nM.

As to `CC1c2cc(-c3c[nH]c4cc(F)ccc34)ccc2S(=O)(=O)N1C1CNC(=O)C1` (single isomer, unassigned; (-)) [Example 124, (−)-4-(5-(6-fluoro-1H-indol-3-yl)-3-methyl-1,1-dioxido-benzo[d]isothiazol-2(3H)-yl)pyrrolidin-2-one], it took 68 nM to reach half-maximal inhibition (IC50). The IC50 values of the last two compounds are within 1.5-fold of each other. To `CC1c2cc(-c3c[nH]c4cc(F)ccc34)ccc2S(=O)(=O)N1C1CNC(=O)C1` (single isomer, unassigned; (-)) [Example 125, (−)-4-(5-(6-fluoro-1H-indol-3-yl)-3-methyl-1,1-dioxido-benzo[d]isothiazol-2(3H)-yl)pyrrolidin-2-one] belongs 505 nM; to `CNC(=O)CN1C(CO)c2cc(-c3c[nH]c4cc(F)ccc34)ccc2S1(=O)=O` (single isomer, unassigned; (-)) [Example 127, (−)-2-(5-(6-fluoro-1H-indol-3-yl)-3-(hydroxymethyl)-1,1-dioxidobenzo[d]isothiazol-2(3H)-yl)-N-methylacetamide], 87 nM; to `Cn1cnc(CN2C(CO)c3cc(-c4c[nH]c5cc(F)ccc45)ccc3S2(=O)=O)n1` (single isomer, unassigned; (-)) [Example 129, (−)-5-(6-fluoro-1H-indol-3-yl)-3-(hydroxymethyl)-2-((1-methyl-1H-1,2,4-triazol-3-yl)methyl)-2,3-dihydrobenzo[d]isothiazole 1,1-dioxide], 39 nM. To `O=S1(=O)c2ccc(-c3c[nH]c4cc(F)ccc34)cc2C(CO)N1CCO` (single isomer, unassigned; (-)) [Example 132, (−)-5-(6-fluoro-1H-indol-3-yl)-2-(2-hydroxyethyl)-3-(hydroxymethyl)-2,3-dihydrobenzo[d]isothiazole 1,1-dioxide] belongs 81 nM.

The compound `CC1c2cc(-c3c[nH]c4cc(F)ccc34)ccc2S(=O)(=O)N1CCc1n[nH]c(=O)o1` (single isomer, unassigned; (-)) [Example 133, (−)-5-(2-(5-(6-fluoro-1H-indol-3-yl)-3-methyl-1,1-dioxidobenzo[d]isothiazol-2(3H)-yl)ethyl)-1,3,4-oxadiazol-2(3H)-one] came in with an IC50 of 383 nM. Against the preceding compound, the IC50 is about 4.7-fold higher.

With `CS(=O)(=O)NCC1NS(=O)(=O)c2ccc(-c3c[nH]c4cc(F)ccc34)cc21` (single isomer, unassigned; (-)) [Example 139, (−)-N-((5-(6-fluoro-1H-indol-3-yl)-1,1-dioxido-2,3-dihydrobenzo[d]isothiazol-3-yl)methyl)methanesulfonamide], the IC50 was determined as 520 nM. The same measure for `O=S1(=O)c2ccc(-c3c[nH]c4cc(F)ccc34)cc2C(CO)N1CC(O)CO` (single isomer, unassigned; (-)) [Example 142, (−)-2-(2,3-dihydroxypropyl)-5-(6-fluoro-1H-indol-3-yl)-3-(hydroxymethyl)-2,3-dihydrobenzo[d]isothiazole 1,1-dioxide]: 124 nM; for `O=S1(=O)c2ccc(-c3c[nH]c4cc(F)ccc34)cc2C(CO)N1CC(O)CO` (single isomer, unassigned; (-)) [Example 143, (−)-2-(2,3-dihydroxypropyl)-5-(6-fluoro-1H-indol-3-yl)-3-(hydroxymethyl)-2,3-dihydrobenzo[d]isothiazole 1,1-dioxide]: 342 nM. `CNC(=O)C(C)N1C(C)c2cc(-c3c[nH]c4cc(F)ccc34)ccc2S1(=O)=O` (single isomer, unassigned; (-)) [Example 145, (−)-2-(5-(6-fluoro-1H-indol-3-yl)-3-methyl-1,1-dioxidobenzo[d]isothiazol-2(3H)-yl)-N-methylpropanamide]: half-maximal inhibition (IC50) was put at 92 nM. The compound `CNC(=O)C(C)N1C(C)c2cc(-c3c[nH]c4cc(F)ccc34)ccc2S1(=O)=O` (single isomer, unassigned; (-)) [Example 148, (−)-2-(5-(6-fluoro-1H-indol-3-yl)-3-methyl-1,1-dioxidobenzo[d]isothiazol-2(3H)-yl)-N-methylpropanamide] registered an IC50 of 265 nM. The same measure for `CC1(C)NS(=O)(=O)c2ccc(-c3c[nH]c4cc(F)ccc34)cc21` [Example 5, 5-(6-fluoro-1H-indol-3-yl)-3,3-dimethyl-2,3-dihydrobenzo[d]isothiazole 1,1-dioxide]: 96 nM; for `NCCN1Cc2cc(-c3c[nH]c4cc(F)ccc34)ccc2S1(=O)=O` [Example 31, 2-(2-aminoethyl)-5-(6-fluoro-1H-indol-3-yl)-2,3-dihydrobenzo[d]isothiazole 1,1-dioxide]: 221 nM; for `CN(C)CCN1Cc2cc(-c3c[nH]c4cc(F)ccc34)ccc2S1(=O)=O` [Example 32, 2-(2-(dimethylamino)ethyl)-5-(6-fluoro-1H-indol-3-yl)-2,3-dihydrobenzo[d]isothiazole 1,1-dioxide]: 230 nM. The same measure for `O=S1(=O)c2ccc(-c3c[nH]c4cc(F)ccc34)cc2CN1CCO` [Example 33, 5-(6-fluoro-1H-indol-3-yl)-2-(2-hydroxyethyl)-2,3-dihydrobenzo[d]isothiazole 1,1-dioxide]: 89 nM; for `O=S1(=O)c2ccc(-c3c[nH]c4cc(F)ccc34)cc2CN1C[C@H](O)CO` [Example 34, (S)-2-(2,3-dihydroxypropyl)-5-(6-fluoro-1H-indol-3-yl)-2,3-dihydrobenzo[d]isothiazole 1,1-dioxide]: 103 nM. To `O=S1(=O)c2ccc(-c3c[nH]c4cc(F)ccc34)cc2CN1C[C@@H](O)CO` [Example 35, (R)-2-(2,3-dihydroxypropyl)-5-(6-fluoro-1H-indol-3-yl)-2,3-dihydrobenzo[d]isothiazole 1,1-dioxide] belongs 119 nM. For `O=S1(=O)c2ccc(-c3c[nH]c4cc(F)ccc34)cc2CN1C1CCNCC1` [Example 36, 5-(6-fluoro-1H-indol-3-yl)-2-(piperidin-4-yl)-2,3-dihydrobenzo[d]isothiazole 1,1-dioxide], half-maximal inhibition (IC50) was put at 192 nM. Compared with the last compound, the IC50 is about 1.6-fold higher.

With `CN1CCC(N2Cc3cc(-c4c[nH]c5cc(F)ccc45)ccc3S2(=O)=O)CC1` [Example 37, 5-(6-fluoro-1H-indol-3-yl)-2-(1-methylpiperidin-4-yl)-2,3-dihydrobenzo[d]isothiazole 1,1-dioxide], the IC50 was found to be 196 nM.
